Results on five compounds are retold here after US10206394B2, “Herbicidal compounds” (Syngenta Participations AG, priority 2014, dated 2019).

Holding throughout (experiment): Glasshouse assay for herbicidal activity (pre- and post-emergence), percentage phytotoxicity
Common to all, as to assay type: in vivo

Experiment [1] deals with Alopecurus myosuroides (ALOMY). The following applies: Rate 250 g/ha, 100%=total damage, 0%=no damage; for pest or weed control at 250 g/ha: Alopecurus myosuroides. The gist of the method: (§1)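 Visual phytotoxicity score, 0% = undamaged to 100% = total kill, read 20 days after treatment for PRE and 15 days for POST. Pots of standard soil; treatment at day 1 (PRE) or roughly day 12 (POST). Glasshouse: 16 h photoperiod, 65% RH, 24/18 or 20/16 °C by climate type.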

In another experiment the test system is Avena fatua (AVEFA). The following applies: Rate 250 g/ha, 100%=total damage, 0%=no damage; for pest or weed control at 250 g/ha: Avena fatua. The gist of the method: as §1
The subject of experiment [2] is Echinochloa crus-galli (ECHCG). Conditions: Rate 250 g/ha, 100%=total damage, 0%=no damage; for pest or weed control at 250 g/ha: Echinochloa crus-galli. The gist of the method:
as §1

Another experiment has as its system Lolium perenne (LOLPE). The following applies: Rate 250 g/ha, 100%=total damage, 0%=no damage; for pest or weed control at 250 g/ha: Lolium perenne. The gist of the method:
as §1

Setting [3] is: post-emergence, 360 h, post-emergence, assessed visually 15 DAA, read-out: Post-emergence herbicidal activity (percentage phytotoxicity) ALOMY POST.
Setting [4] is: pre-emergence, 480 h, pre-emergence, assessed visually 20 DAA, read-out: Pre-emergence herbicidal activity (percentage phytotoxicity) ALOMY PRE.
The mark [5] stands for this setting: post-emergence, 360 h, post-emergence, assessed visually 15 DAA, read-out: Post-emergence herbicidal activity (percentage phytotoxicity) AVEFA POST.
The mark [6] stands for this setting: pre-emergence, 480 h, pre-emergence, assessed visually 20 DAA, read-out: Pre-emergence herbicidal activity (percentage phytotoxicity) AVEFA PRE.
[7] abbreviates: post-emergence, 360 h, post-emergence, assessed visually 15 DAA, read-out: Post-emergence herbicidal activity (percentage phytotoxicity) ECHCG POST.
Where [8] appears, read: pre-emergence, 480 h, pre-emergence, assessed visually 20 DAA, read-out: Pre-emergence herbicidal activity (percentage phytotoxicity) ECHCG PRE.
Setting [9] is: post-emergence, 360 h, post-emergence, assessed visually 15 DAA, read-out: Post-emergence herbicidal activity (percentage phytotoxicity) LOLPE POST.
Where [10] appears, read: pre-emergence, 480 h, pre-emergence, assessed visually 20 DAA, read-out: Pre-emergence herbicidal activity (percentage phytotoxicity) LOLPE PRE.
[11] abbreviates: post-emergence, assessed visually 15 DAA.
The mark [12] stands for this setting: pre-emergence, assessed visually 20 DAA.

Structures are written as SMILES. Read-outs that look alike come from different tables or passages of the source.

Consider `Cc1cc(-c2ncc(Cl)cc2F)cc(C)c1C1C(=O)CC(CC(=O)NCc2cccc([N+](=O)[O-])c2)C1=O` (stereo not shown) [Compound A122], for which the pest or weed control at 250 g/ha in experiment [1] (setting [3]) is 90%; in experiment [1] (setting [4]), 70%; with Avena fatua (AVEFA) (setting [5]), 100%; with Avena fatua (AVEFA) (setting [6]), 0%; in experiment [2] (setting [7]), 100%; in experiment [2] (setting [8]), 90%. Also, the figures for the pest or weed control at 250 g/ha with Lolium perenne (LOLPE) (setting [9]) and in the experiment on Lolium perenne (LOLPE) (setting [10]) were 70% and 20%, respectively.

With `COCCCN(C(=O)CC1CC(OC(=O)C(C)(C)C)=C(c2c(C)cc(C)cc2C)C1=O)C(=O)C(C)(C)C` (stereo not shown) [Compound P9], the pest or weed control at 250 g/ha in experiment [1] (post-emergence, 360 h, post-emergence, visual assessment 15 DAA, read-out: Post-emergence herbicidal activity (percentage phytotoxicity) ALOMY POST) is 80%; in experiment [1] (pre-emergence, 480 h, pre-emergence, visual assessment 20 DAA, read-out: Pre-emergence herbicidal activity (percentage phytotoxicity) ALOMY PRE) it was 90%; with Avena fatua (AVEFA) (post-emergence, 360 h, post-emergence, visual assessment 15 DAA, read-out: Post-emergence herbicidal activity (percentage phytotoxicity) AVEFA POST) it was 80%; with Avena fatua (AVEFA) (pre-emergence, 480 h, pre-emergence, visual assessment 20 DAA, read-out: Pre-emergence herbicidal activity (percentage phytotoxicity) AVEFA PRE), 60%; in experiment [2] (post-emergence, 360 h, post-emergence, visual assessment 15 DAA, read-out: Post-emergence herbicidal activity (percentage phytotoxicity) ECHCG POST) it was 80%; in experiment [2] (pre-emergence, 480 h, pre-emergence, visual assessment 20 DAA, read-out: Pre-emergence herbicidal activity (percentage phytotoxicity) ECHCG PRE), 90%. The pest or weed control at 250 g/ha with Lolium perenne (LOLPE) (post-emergence, 360 h, post-emergence, visual assessment 15 DAA, read-out: Post-emergence herbicidal activity (percentage phytotoxicity) LOLPE POST) came to 80%; in the experiment on Lolium perenne (LOLPE) (pre-emergence, 480 h, pre-emergence, visual assessment 20 DAA, read-out: Pre-emergence herbicidal activity (percentage phytotoxicity) LOLPE PRE), 90%.

As to `Cc1cc(-c2cnc(Cl)cn2)cc(C)c1C1C(=O)CC(CC(=O)NCc2cccc(C(F)(F)F)c2)C1=O` (stereo not shown) [Compound A149], the “Post-emergence herbicidal activity (percentage phytotoxicity) ALOMY POST” value in experiment [1] (setting [11]) was 100%. For the same compound, the “Pre-emergence herbicidal activity (percentage phytotoxicity) ALOMY PRE” value in experiment [1] (setting [12]) was determined as 80%. The “Post-emergence herbicidal activity (percentage phytotoxicity) AVEFA POST” value with Avena fatua (AVEFA) (setting [11]) came out at 100%. For the same compound, the “Pre-emergence herbicidal activity (percentage phytotoxicity) AVEFA PRE” value with Avena fatua (AVEFA) (setting [12]) was found to be 100%. Further, in experiment [2] (setting [11]), the “Post-emergence herbicidal activity (percentage phytotoxicity) ECHCG POST” value is given as 100%. In addition, in experiment [2] (setting [12]), the “Pre-emergence herbicidal activity (percentage phytotoxicity) ECHCG PRE” value came to 100%. Also, the “Post-emergence herbicidal activity (percentage phytotoxicity) LOLPE POST” value in the experiment on Lolium perenne (LOLPE) (setting [11]) worked out at 100%. The “Pre-emergence herbicidal activity (percentage phytotoxicity) LOLPE PRE” value in the experiment on Lolium perenne (LOLPE) (setting [12]) is on record as 90%.

Take `CCN(C)C(=O)CC1CC(=O)C(c2c(C)cc(C)cc2C)C1=O` (stereo not shown) [Compound A160]: the pest or weed control at 250 g/ha in experiment [1] (setting [3]) came to 70%; in experiment [1] (setting [4]), 70%; with Avena fatua (AVEFA) (setting [5]) it was 90%; in the experiment on Avena fatua (AVEFA) (setting [6]) it was 80%; in experiment [2] (setting [7]), 90%; in experiment [2] (setting [8]), 100%. Moreover, the pest or weed control at 250 g/ha in the experiment on Lolium perenne (LOLPE) (setting [9]) and with Lolium perenne (LOLPE) (setting [10]) was 100% in each case.

In the case of `Cc1cc(-n2cc(Cl)cn2)cc(C)c1C1C(=O)CC(CC(=O)NCc2ccccn2)C1=O` (stereo not shown) [Compound A71], the pest or weed control at 250 g/ha in experiment [1] (setting [3]) came to 100%; in experiment [1] (setting [4]), 80%; in the experiment on Avena fatua (AVEFA) (setting [5]), 90%; in the experiment with Avena fatua (AVEFA) (setting [6]), 80%; in experiment [2] (setting [7]), 100%; in experiment [2] (setting [8]), 90%. Further, the pest or weed control at 250 g/ha with Lolium perenne (LOLPE) (setting [9]) worked out at 70%; in the experiment with Lolium perenne (LOLPE) (setting [10]), 60%.
